Experimental findings from BindingDB's records for doi:10.1021/jm00053a025 (University of Minnesota, 1993) are described below.

The test is described as follows: Binding affinity for delta opioid receptor was determined using radioligand [3H]DPDPE in Guinea pig brain membranes.

As usually defined, the Ki is a dissociation constant, usually derived from enzyme kinetics or from competition with a known ligand.

With `CCCCC(=N)NCc1ccc2[nH]c3c(c2c1)C[C@@]1(O)C2Cc4ccc(O)c5c4[C@@]1(CCN2CC1CC1)C3O5` (stereo partly drawn) [22-cyclopropylmethyl-7-(1-iminopentylaminomethyl)-(2S)-14-oxa-11,22-diazaheptacyclo[13.9.1.01,13.02,21.04,12.05,10.019,25]pentacosa-4(12),5(10),6,8,15,17,19(25)-heptaene-2,16-diol], the Ki was determined as 5.5 nM.
